Data set [1] in a line: Changes of serum lipids containing nervonic acid chains after taking acer truncatum bunge seed oil for different days. Type of data set: in vivo, SD rats. Particulars: for blood levels after taking acer truncatum bunge seed oil compared with before taking: rat blood; for serum lipid content, Day 1 (NA1) / serum lipid content, Day 3 (NA3) / serum lipid content, Day 7 (NA7) / difference in content between the third and the seventh day of administration / content compared with the normal group: rat serum; for serum lipid content, Day 1 (NA1) / serum lipid content, Day 3 (NA3) / serum lipid content, Day 7 (NA7): acer truncatum bunge seed oil group, nervonic acid 0.03 g/kg/d by gavage; for difference in content between the third and the seventh day of administration: day 3 vs day 7; for content compared with the normal group: oil group vs normal control group; for NA7/NA1: ratio of serum content day 7 to day 1. Here is the method:
The collected serum samples were thawed on ice, 200 µL plasma was extracted with 600 µL pre-cooled isopropanol, vortexed for 1 min, and incubated at room temperature for 10 min. Then the extraction mixture was stored overnight at -20° C., centrifuged at 4000r for 20 min, and the supernatant was transferred to a new centrifuge tube, diluted with isopropanol/acetonitrile/water (2:1:1, v:v:v) to 1:10. The samples were stored at -80° C. before LC-MS analysis. In addition, 10 µL of each extraction mixture was combined to prepare mixed plasma samples.
The mixed plasma samples were analyzed using ACQUITY UPLC(Waters, USA) connected to the Xevo-G2XS High Resolution Time of Flight (QTOF) Mass spectrometer (Waters) with ESI. CQUITY UPLC BEH C18 column (2.1× 100 mm, 1.7 µm, Waters), and mobile phase consisted of 10 mM ammonium formate-0.1% formic acid-acetonitrile (A, 60: 40, v/v) and 10 mM ammonium formate-0.1% formic acid-isopropanol-acetonitrile (B, 90:10, v/v) were used. Pilot trials with 10-, 15-, and 20-minute washout periods were conducted prior to the large-scale study to assess the potential impact of mobile phase composition and flow rate on lipid retention time. In PIM, rich lipid precursor ions and fragments separated in the same order, with similar peak shapes and ionic strengths. […] The flow rate of mobile phase was 0.4 mL/min. The column was initially eluted with 40% B, 43% B in 2 min according to linear gradient, and 50% B within 0.1 min, 54%B in 3.9 minutes according to linear gradient, and 70% B within 0.1 min. In the last part of the gradient, the amount of B increased to 99% in 1.9 minutes. Finally, solution B was returned to 40% within 0.1 min and the column was balanced for 1.9 min before the next sample injection. The lipids were detected by Xevo-G2XS QTOF mass spectrometer with a sample size of 5 µL/time, collection range of m/z50~1200 […], and collection time of 0.2 s/time. The ion source temperature was 120° C., the desolutizing temperature was 600° C., the gas flow rate was 1000 L/h, and nitrogen was used as the flowing gas. The capillary voltage was 2.0 kV(+)/the […] was 1.5 kV(-), and the cone voltage was 30 V. A standard quality determination was carried out using leucine enkephalin and corrected with sodium formate solution. The samples were sorted randomly. A quality control (QC) sample was injected into every 10 samples and analyzed to investigate repeatability of the data.
50 male SD rats aged 5-6 weeks were randomly divided into 2 groups, which were acer truncatum bunge seed oil group (NA group) and normal control group (CK group). After 1 week of adaptive feeding, rats in each group entered into the experiment. Acer truncatum bunge seed oil group was administrated by gavage according to the content of nervonic acid 0.03 g/kg/d, once a day, and blood was collected after 1, 3 and 7 days. The normal control group was fed routinely, and the blood was collected at the same time as the acer truncatum bunge seed oil group for the detection of lipid SM(d17:1/24:1) and Cer(d18:1/24:1(15Z)) with the nervonic acid chain.

The nature of data set [2]: Serum lipid content before and after taking acer truncatum bunge seed oil in patients with demyelinating disease. Type of data set: in vivo, human. From the text:
For sample detection, sample pretreatment and ultra-high performance liquid chromatography-mass spectrometry in Example 1 were used. At the same time, standard SM(d17:1/24:1) and Cer(d18:1/24:1(15Z)) were used as reference for detection.

The conditions of data set [3]: human, once a day for one month; cited from earlier work.
Setting [4] is: after 1 day of taking the oil, individual patients.

These results are taken from patent publication US20230324419A1, “METHOD FOR DIAGNOSING ACTING OF NERVONIC ACID AND USE THEREOF” (BAO FENG BIOTECH (BEIJING) CO., LTD, priority 2020, published 2023).

Regarding `CCCCCCCC/C=C\CCCCCCCCCCCCCC(=O)N[C@@H](CO)[C@H](O)/C=C/CCCCCCCCCCCCC` [Cer(d18:1/24:1(15Z))], in data set [1], the “blood levels after taking acer truncatum bunge seed oil compared with before taking” value is above 1.3 times; the “serum lipid content, Day 1 (NA1)” value came to 135883.1; the “serum lipid content, Day 3 (NA3)” value is 209352.5; the “serum lipid content, Day 7 (NA7)” value stood at 172840.3. In addition, in data set [1], the “difference in content between the third and the seventh day of administration” value is on record as “no significant difference”; the “content compared with the normal group” value was “increased”; the NA7/NA1 worked out at 1.3. The “serum lipid content relative to before taking acer truncatum bunge seed oil” value in data set [2] (after 7-day of taking the oil) is given as 1.45 times. Moreover, in data set [2] (setting [4]), the “serum lipid content relative to before taking acer truncatum bunge seed oil” value came to 1.23 times.

Take SM(d17:1/24:1): in data set [1], the “blood levels after taking acer truncatum bunge seed oil compared with before taking” value is reported as “more than 1.2 times”; the “serum lipid content, Day 1 (NA1)” value is reported as 245574.2; the “serum lipid content, Day 3 (NA3)” value was 340912.8; the “serum lipid content, Day 7 (NA7)” value stood at 291861.8. Moreover, in data set [1], the “difference in content between the third and the seventh day of administration” value is reported as “no significant difference”; the “content compared with the normal group” value is “increased”; the NA7/NA1 was 1.2. The “serum lipid content relative to before taking acer truncatum bunge seed oil” value in data set [2] (after 7-day of taking the oil) turned out to be 1.22 times. The “serum lipid content relative to before taking acer truncatum bunge seed oil” value in data set [2] (setting [4]) is listed as 1.15 times.

Turning to `CCCCCCCC/C=C\CCCCCCCCCCCCCC(=O)O` [nervonic acid, cis-15-Tetracosenic acid], the “test indexes (mind, picture, recognition, association, sence of touch, understanding) compared with the control group” value in data set [3] is on record as “significantly improved”.
